Test results taken from PubChem BioAssay (NCI).
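Compound exposure: 48 hours, 5 concentrations, 96-well plates. At the TGI there is no net growth.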 Where a SMILES comes first, the peptide text is derived from it. [ ]: non-standard residue; d: D form. The star is where a group is joined. Boc = CC(C)(C)OC(=O)*; Lac = C[CH](O)C(=O)O; OBn = c1ccc(CO*)cc1

Test system: OVCAR-8 ovarian
Assay: NCI-60 cell line screen, 48 h

| Structure (SMILES) | TGI [µM] |
| --- | --- |
| COc1ccc(NC(=S)Nc2cc(C)cc(C)n2)cc1 | > 100 |
| CN(C)c1ccc(C2CC(c3ccc4ccccc4c3O)=NN2)cc1 (configuration not stated) | > 100 |
| CN1CCc2cc3c(c4c2C1C(O)c1ccccc1-4)OCO3 (configuration not stated) | 50.5 |
| C1=CC2(C=CC13O[C@H](C1CCCCC1)[C@@H](C1CCCCC1)O3)O[C@H](C1CCCCC1)[C@@H](C1CCCCC1)O2 | > 50 |
| CC(OC(=O)C(Cc1ccccc1)NC(=O)C(Cc1ccccc1)NC(=O)OC(C)(C)C)C(=O)OCc1ccccc1 (stereo not drawn) (Boc-Phe-Phe-[Lac]-OBn; configuration not given here) | > 100 |

Test system: PC-3 prostate
Assay: NCI-60 cell line screen, 48 h

| Structure (SMILES) | TGI [µM] |
| --- | --- |
| CC1=NN(c2nc(N)nc(/C(C#N)=C/c3ccccc3O)n2)C(C)(C)C1 | 31.6 |
| Cc1c(-c2ccc(O)cc2)n(CCCCCCNCCOC(=O)NCCCc2ccc(N(CCCl)CCCl)cc2)c2ccc(O)cc12 | 11.4 |
| COc1ccc(NC(=S)Nc2cc(C)cc(C)n2)cc1 | > 100 |
| CN(C)c1ccc(C2CC(c3ccc4ccccc4c3O)=NN2)cc1 (configuration not stated) | > 100 |
| CN1CCc2cc3c(c4c2C1C(O)c1ccccc1-4)OCO3 (configuration not stated) | 18.6 |
| C1=CC2(C=CC13O[C@H](C1CCCCC1)[C@@H](C1CCCCC1)O3)O[C@H](C1CCCCC1)[C@@H](C1CCCCC1)O2 | > 50 |
| CC(OC(=O)C(Cc1ccccc1)NC(=O)C(Cc1ccccc1)NC(=O)OC(C)(C)C)C(=O)OCc1ccccc1 (stereo not drawn) (Boc-Phe-Phe-[Lac]-OBn; configuration not given here) | > 100 |

Test system: RPMI-8226 leukemia
Assay: NCI-60 cell line screen, 48 h

| Structure (SMILES) | TGI [µM] |
| --- | --- |
| CC1=NN(c2nc(N)nc(/C(C#N)=C/c3ccccc3O)n2)C(C)(C)C1 | 36.2 |
| Cc1c(-c2ccc(O)cc2)n(CCCCCCNCCOC(=O)NCCCc2ccc(N(CCCl)CCCl)cc2)c2ccc(O)cc12 | 2.98 |
| COc1ccc(NC(=S)Nc2cc(C)cc(C)n2)cc1 | > 100 |
| CN(C)c1ccc(C2CC(c3ccc4ccccc4c3O)=NN2)cc1 (configuration not stated) | > 100 |
| CN1CCc2cc3c(c4c2C1C(O)c1ccccc1-4)OCO3 (configuration not stated) | 32.6 |
| C1=CC2(C=CC13O[C@H](C1CCCCC1)[C@@H](C1CCCCC1)O3)O[C@H](C1CCCCC1)[C@@H](C1CCCCC1)O2 | > 50 |
| CC(OC(=O)C(Cc1ccccc1)NC(=O)C(Cc1ccccc1)NC(=O)OC(C)(C)C)C(=O)OCc1ccccc1 (stereo not drawn) (Boc-Phe-Phe-[Lac]-OBn; configuration not given here) | > 100 |

Test system: RXF 393 renal
Assay: NCI-60 cell line screen, 48 h

| Structure (SMILES) | TGI [µM] |
| --- | --- |
| CC1=NN(c2nc(N)nc(/C(C#N)=C/c3ccccc3O)n2)C(C)(C)C1 | 39.5 |
| COc1ccc(NC(=S)Nc2cc(C)cc(C)n2)cc1 | > 100 |
| CN(C)c1ccc(C2CC(c3ccc4ccccc4c3O)=NN2)cc1 (configuration not stated) | > 100 |
| CN1CCc2cc3c(c4c2C1C(O)c1ccccc1-4)OCO3 (configuration not stated) | 10.8 |
| C1=CC2(C=CC13O[C@H](C1CCCCC1)[C@@H](C1CCCCC1)O3)O[C@H](C1CCCCC1)[C@@H](C1CCCCC1)O2 | > 50 |
| CC(OC(=O)C(Cc1ccccc1)NC(=O)C(Cc1ccccc1)NC(=O)OC(C)(C)C)C(=O)OCc1ccccc1 (stereo not drawn) (Boc-Phe-Phe-[Lac]-OBn; configuration not given here) | > 100 |

Test system: SF-268 CNS
Assay: NCI-60 cell line screen, 48 h

| Structure (SMILES) | TGI [µM] |
| --- | --- |
| CC1=NN(c2nc(N)nc(/C(C#N)=C/c3ccccc3O)n2)C(C)(C)C1 | 37.1 |
| Cc1c(-c2ccc(O)cc2)n(CCCCCCNCCOC(=O)NCCCc2ccc(N(CCCl)CCCl)cc2)c2ccc(O)cc12 | 3.45 |
| COc1ccc(NC(=S)Nc2cc(C)cc(C)n2)cc1 | > 100 |
| CN(C)c1ccc(C2CC(c3ccc4ccccc4c3O)=NN2)cc1 (configuration not stated) | > 100 |
| CN1CCc2cc3c(c4c2C1C(O)c1ccccc1-4)OCO3 (configuration not stated) | 27.7 |
| C1=CC2(C=CC13O[C@H](C1CCCCC1)[C@@H](C1CCCCC1)O3)O[C@H](C1CCCCC1)[C@@H](C1CCCCC1)O2 | > 50 |

Test system: SF-295 CNS
Assay: NCI-60 cell line screen, 48 h

| Structure (SMILES) | TGI [µM] |
| --- | --- |
| CC1=NN(c2nc(N)nc(/C(C#N)=C/c3ccccc3O)n2)C(C)(C)C1 | 30.7 |
| Cc1c(-c2ccc(O)cc2)n(CCCCCCNCCOC(=O)NCCCc2ccc(N(CCCl)CCCl)cc2)c2ccc(O)cc12 | 6.85 |
| COc1ccc(NC(=S)Nc2cc(C)cc(C)n2)cc1 | > 100 |
| CN(C)c1ccc(C2CC(c3ccc4ccccc4c3O)=NN2)cc1 (configuration not stated) | > 100 |
| CN1CCc2cc3c(c4c2C1C(O)c1ccccc1-4)OCO3 (configuration not stated) | 21.1 |
| C1=CC2(C=CC13O[C@H](C1CCCCC1)[C@@H](C1CCCCC1)O3)O[C@H](C1CCCCC1)[C@@H](C1CCCCC1)O2 | > 50 |
| CC(OC(=O)C(Cc1ccccc1)NC(=O)C(Cc1ccccc1)NC(=O)OC(C)(C)C)C(=O)OCc1ccccc1 (stereo not drawn) (Boc-Phe-Phe-[Lac]-OBn; configuration not given here) | > 100 |

Test system: SF-539 CNS
Assay: NCI-60 cell line screen, 48 h

| Structure (SMILES) | TGI [µM] |
| --- | --- |
| CC1=NN(c2nc(N)nc(/C(C#N)=C/c3ccccc3O)n2)C(C)(C)C1 | 30.6 |
| Cc1c(-c2ccc(O)cc2)n(CCCCCCNCCOC(=O)NCCCc2ccc(N(CCCl)CCCl)cc2)c2ccc(O)cc12 | 3.11 |
| COc1ccc(NC(=S)Nc2cc(C)cc(C)n2)cc1 | > 100 |
| CN(C)c1ccc(C2CC(c3ccc4ccccc4c3O)=NN2)cc1 (configuration not stated) | 70.5 |
| CN1CCc2cc3c(c4c2C1C(O)c1ccccc1-4)OCO3 (configuration not stated) | > 100 |
| C1=CC2(C=CC13O[C@H](C1CCCCC1)[C@@H](C1CCCCC1)O3)O[C@H](C1CCCCC1)[C@@H](C1CCCCC1)O2 | > 50 |

Test system: SK-MEL-2 melanoma
Assay: NCI-60 cell line screen, 48 h

| Structure (SMILES) | TGI [µM] |
| --- | --- |
| CC1=NN(c2nc(N)nc(/C(C#N)=C/c3ccccc3O)n2)C(C)(C)C1 | 39.6 |
| Cc1c(-c2ccc(O)cc2)n(CCCCCCNCCOC(=O)NCCCc2ccc(N(CCCl)CCCl)cc2)c2ccc(O)cc12 | 23.8 |
| COc1ccc(NC(=S)Nc2cc(C)cc(C)n2)cc1 | > 100 |
